Reference: ChEMBL document CHEMBL3596102, “Anti-bacterial glycosyl triazoles - Identification of an N-acetylglucosamine derivative with bacteriostatic activity against Bacillus” (2014)
Converted amounts (≈) assume the structure as drawn. The source made the active and inactive calls. The rule behind the calls is not given here.

What was measured:
Bacillus subtilis [1] = experiment: Antibacterial activity against Bacillus subtilis ATCC 11775 assessed as inhibition of bacterial growth after 4 hrs by resazurin microtiter assay; type: functional; details: ATCC 11775, 4 h
Bacillus subtilis [2] = experiment: Inhibition of GlcNAcase in Bacillus subtilis ATCC 11775 assessed as inhibition of nitrophenol release using beta-p-nitrophenyl GlcNAc as substrate at 250 uM after 16 hrs by Spectromax 190 microtitre plate reader
Bacillus subtilis [3] = experiment: Inhibition of GlcNAcase in Bacillus subtilis ATCC 11775 assessed as inhibition of nitrophenol release using beta-p-nitrophenyl GlcNAc as substrate after 16 hrs by Spectromax 190 microtitre plate reader
Bacillus subtilis [4] = experiment: Bacteriostatic activity against Bacillus subtilis ATCC 11775 assessed as colony count at MIC after 4 hrs by resazurin microtiter assay (reference value: 9.40 +/-2.88x10^7 CFU/ml); type: functional
Bacillus subtilis [5] = experiment: Induction of disrupted cell division in Bacillus subtilis ATCC 11775 assessed as phenotype with highly elongated cells and the appearance of chains of cells at 0.8xMIC after 2.5 hrs by phase contrast microscopy; type: functional, organism-based
Bacillus cereus [6] = experiment: Antibacterial activity against Bacillus cereus assessed as inhibition of bacterial growth after 4 hrs by resazurin microtiter assay; type: functional
Bacillus cereus [7] = experiment: Bacteriostatic activity against Bacillus cereus assessed as colony count at MIC after 4 hrs by resazurin microtiter assay (reference value: 2.67 +/-1.53x10^8 CFU/ml); type: functional

CCCCNC(=O)C(C1CCCCC1)N(Cc1cn([C@@H]2O[C@H](CO)[C@@H](O)[C@H](O)[C@H]2NC(C)=O)nn1)C(=O)c1ccccc1I (some centres not stated)
MIC (Bacillus subtilis [1]): 63 µM (≈ 45.8 µg/mL) | inhibition (Bacillus subtilis [2]): Active | inhibition (Bacillus subtilis [3]): Dose-dependent effect | Activity (Bacillus subtilis [4]): 8.5 ×10⁷ CFU/ml | Activity (Bacillus subtilis [5]): Active

COc1ccc(C(C(=O)NCc2ccccc2)N(Cc2ccccc2)C(=O)c2cn([C@@H]3O[C@H](CO)[C@@H](O)[C@H](O)[C@H]3NC(C)=O)nn2)cc1 (some centres not stated)
MIC (Bacillus cereus [6]): 60 µM (≈ 39.5 µg/mL) | Activity (Bacillus cereus [7]): 7 ×10⁸ CFU/ml
